From PubChem BioAssay AID179 (DTP/NCI, 2004)
Active and inactive are the calls of the source.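 The calls were made as follows: active = compounds giving half or more protection of infected cells from virus-caused growth loss, again on retest; inactive = the rest.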

Tested on: CEM cells HIV-1 protection, formazan growth assay
Test: NCI AIDS Antiviral Assay
Conditions: for IC50: measured here: growth of uninfected CEM cells
How it was run: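 Five concentrations of each compound were applied to infected and uninfected human CEM cells. Protection from HIV-1 was judged from growth measured with a soluble formazan assay.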

Structure (SMILES)	outcome	EC50 [µM]	IC50 [µM]
CC(C)=CC1c2[nH]c3ccccc3c2CC(C(=O)O)N1C(=O)OC(C)(C)C(Cl)(Cl)Cl (stereo not given)	inactive	–	–
CC(=O)NC1=N/C(=C/c2cc([N+](=O)[O-])ccc2O)CN1C	–	> 200	> 200
CNc1ccc([N+](=O)[O-])cc1C(=O)N1CCC[C@H]1CO	–	> 200	> 200
Nc1nn2c(C(Br)Br)cc(C(Br)Br)nc2c1[N+](=O)[O-]	–	> 200	0.525
CC(=O)Oc1cc(C(F)(F)F)ccc1C(=O)OC1(C)OC(=O)c2ccc(C(F)(F)F)cc2O1 (stereo not given)	–	> 200	41.7
Cc1c(N(C)C)ccc2c(=O)c3cccc(CC(=O)O)c3oc12	–	> 741	282
COCCCNc1nc(N)c(C#N)c(C#N)c1C#N	inactive	–	–
O=C1C=C(Nc2ccccc2C(=O)CC(=O)C(=O)Nc2cccc(C(F)(F)F)c2)c2ccccc2C1=O	–	> 37.2	6.61
Cc1nc(N)nc(N)c1CCCCc1ccc(N)cc1	inactive	–	–
Cc1[nH]n(-c2nc3c(c(=O)[nH]2)CCC3)c(=O)c1CCO	–	> 200	182
O/N=C/c1ccc(O)c(O)c1	–	> 1620	87.1
CC1=C(C(=O)CC(=O)C(=O)Nc2ccc(Cl)cc2C)Sc2ccccc2N1	–	> 117	> 117
Cc1cc(N=Nc2ccc(Sc3ccc(N=Nc4ccc(O)c(C(=O)O)c4)cc3)cc2)c(N)c(N=Nc2ccc(N=Nc3ccc(S(=O)(=O)O)cc3)cc2)c1N	–	5.62	> 100
O=C(O)c1c[nH]c2c(ccc3[nH]cc(C(=O)O)c(=O)c32)c1=O	–	> 200	> 200
COc1cnc2cc3c4c(cccc4c2c1)NC3=O	–	> 100	3.98
CC(C)C(NCc1c2ccccc2[n+](C)c2ccccc12)C(=O)O (stereo not given)	inactive	–	–
NNC(=O)CC(=O)Nc1ccccc1Cl	–	> 200	> 200

Structure (SMILES)	outcome	EC50 [µM]	IC50 [µM]
Cc1nc(N)[nH]c(=O)c1CCCNc1ccc(C(=O)NC(CCC(=O)O)C(=O)O)cc1 (stereo not given)	–	> 200	2.75
CCC12C=C(C(=O)OC)N3c4ccccc4C4CCN(CCC1)C2C43 (stereo not given)	inactive	–	–
CCCCOC(=O)/C(CC(=O)C=C(C)C)=N\NS(=O)(=O)c1ccc(C)cc1	–	> 174	> 174
CN(NC(=O)/C(=C/C=C/c1ccccc1)NC(=O)c1ccccc1)c1cnn(-c2ccccc2)c(=O)c1Cl	–	> 200	3.24
COC(=O)/C=c1\s/c(=C\C(=O)OC)c2ccccc12	inactive	–	–
COc1ccc(C(=O)/C=C/c2cc(C(C)(C)C)c(O)c(C(C)(C)C)c2)cc1	–	> 7.41	> 7.41
O=C1c2ccccc2-c2c3c(cc4ccnc1c24)OCO3	inactive	–	–
O=P(Nc1ccccc1)(Oc1ccccc1)N(CCCl)CCCl (stereo not given)	–	> 50.1	22.4
Cc1c(CSCC(=O)O)c(O)c2c(=O)c3c(O)c(CSCC(=O)O)c(O)c4c5c(O)c(CSCC(=O)O)c(O)c6c(=O)c7c(O)c(CSCC(=O)O)c(C)c8c1c2c(c34)c(c78)c65	–	> 26.9	1.12
O=C1C=C(c2ccccc2)C2(c3ccccc3)C1C1C(c3ccccc3)=C(c3ccccc3)C2C12SCCS2 (stereo not given)	–	> 200	3.39
Cc1cccc(N2C(c3ccccc3)c3ccc(C)cc3NS2=O)c1 (stereo not given)	–	> 257	151
COC(=O)/C(=N/Nc1cccc(Cl)c1)C(C(=O)C(=O)Nc1cccc(Cl)c1C)c1nc2ccccc2nc1C (stereo not given)	–	> 12.9	> 12.9
CCOC(=O)C1C(c2ccc(OC)cc2)c2c([nH]n(-c3ccccc3)c2=O)CC1(O)OCC (stereo not given)	–	> 200	9.12
CC12CP(=O)(c3ccccc3)CC1C2(Cl)Cl (stereo not given)	inactive	–	–
COc1ccc(/C=C(/C(C)=O)c2ccccc2)cc1	–	> 74.1	> 74.1
Nc1ccc2ccccc2c1N=Nc1ccc(/C=C/c2ccc(N=Nc3c(N)ccc4ccccc34)cc2S(=O)(=O)O)c(S(=O)(=O)O)c1	–	63.1	115
CCOC(=O)C1C(=O)CC(C)(O)C(C(=O)OCC)C1c1ccc(N(C)C)cc1 (stereo not given)	–	> 200	> 200
